From patent US10786522B2, “Compositions that include anthocyanidins and methods of use” (Maqui NewLife S.A., priority 2009, dated 2020)

Tests used:
[1] = test system: Jurkat T cells; assay: IL-2 production in Jurkat T cells (ELISA); assay type: cell-based
Procedure: (§1) 2×10^6 Jurkat T cells in RPMI medium were incubated for 48 hrs at 37° C., in 5% CO2 in the presence of vehicle control solution; or the T cell activator, phorbol 12-myristate 13-acetate/lonomycin (PMA/Io 2 ng/ml 1 uM); 50 μM of delphinidin; 50 μM delphinidin+PMA/Io; 50 μM cyanidin; or 50 μM cyaniding+PMA/Io. Then the supernatants were collected and IL-2 production was analyzed by ELISA using a commercial kit (Becton Dickinson, USA) according to the supplier's directions.
Then the supernatants were collected and analyzed using commercial ELISA kit (Becton Dickinson, USA) to measure IL-2 production according to the supplier's directions.
Jurkat T cells were incubated in either a vehicle control solution; 5 nM andrographolide; 50 μM delphinidin; or 5 nM andrographolide plus 50 μM delphinidin.

[2] = test system: Human T cells; assay: IL-2 production in freshly isolated human T cells (ELISA); assay type: cell-based; conditions: for Average IL-2 production / Percentage compared to the control (IL-2): 48 hrs
Procedure: (§2) The effect of delphinidin on IL-2 and INF-γ production was also assayed on freshly isolated human T cells. Human T cells were isolated from blood of healthy volunteers using Lymphoprep reagent. T cells (1×10^6) in RMPI medium were incubated for 48 hrs at 37° C., in 5% CO2 in the presence of a vehicle control solution; 50 μM delphinidin; 50 μM delphinidin+1 μM BTP-2; 50 μM delphinidin+5 μM BTP-2; 50 μM delphinidin+10 μM BTP-2; 1 μM BTP-2; 5 μM. BTP-2; or 10 μM BTP-2. Then the supernatants were collected and analyzed using commercial ELISA kit (Becton Dickinson, USA) to measure IL-2 and INF-γ production according to the supplier's directions.
We evaluated the effect of a combination of delphinidin and andandrographolide on IL-2 production in both freshly harvested human T cells and the Jurkat cell line. Andrographolide was prepared according to the method described in Example 4. Human T cells were isolated from blood of healthy volunteers using Lymphoprep reagent. T cells (1×10^6) in RMPI medium were incubated for 48 hrs at 37° C., in 5% CO2 in the presence of a vehicle control solution; 5 nM andrographolide; 50 μM delphinidin; or 5 nM andrographolide plus 50 μM delphinidin. Then the supernatants were collected and analyzed using commercial ELISA kit (Becton Dickinson, USA) to measure IL-2 production according to the supplier's directions.

[3] = test system: Jurkat T cells; assay: INF-γ production in Jurkat T cells (ELISA); assay type: cell-based; conditions: 48 hrs; for Average INF-γ production / Percentage vs. control (INF-γ): delphinidin 50 μM, cyanidin 50 μM, PMA/Io 2 ng/ml 1 uM
Procedure: as §1, with “We also explored the effect of delphinidin and cyanidin on Interferon-gamma (INF-γ) production in Jurkat T cells. 2×10^6” for “2×10^6”, “CO2. The samples were incubated” for “CO2”, “13-acetate/Ionomycin” for “13-acetate/lonomycin”, “IFN-γ” for “IL-2”

[4] = test system: Jurkat T cells; assay: Calcium entry (SOCE) in Jurkat T cells after addition of CaCl2; assay type: cell-based; conditions: 0.9 mM CaCl2 added after 200 seconds; delphinidin 50 μM, BTP-2 10 μM
Procedure: To measure calcium entry after 200 seconds, when the levels of calcium returned to the baseline, 0.9 mM of CaCl2 was added, and the fluxes of Ca^2+ were measured as ratio of excitation ratio at 340 and 380 nm, and emission at 509 nm in a spectrofluorimeter during 150 seconds.
4×10^6 FURA 2-AM-loaded Jurkat T cells were incubated in HBSS calcium free medium. The cells were incubated in 50 uM delphinidin or 50 uM delphinidin plus 10 μM BTP-2 and the fluxes of Ca^2+ were measured as ratio of excitation at 340 and 380 nm, and emission at 509 nm, at 37° C. in a spectrofluorimeter (LS55, PerkinElmer).

[5] = test system: Jurkat T cells; assay: Ca2+ fluxes in FURA 2-AM-loaded Jurkat T cells (spectrofluorimetry, medium with CaCl2); assay type: cell-based
Procedure: We evaluated the effect of delphinidin on intracellular calcium release in Jurkat T cells. Extracts were prepared according to the method of Example 1. Jurkat T cells in Hanks' Balanced Salt Solution (HBSS) medium (Invitrogen) with 0.9 mM of CaCl2 were loaded with Fura-2-acetoxymethyl ester (2.5 uM FURA 2-AM) for 30 min at 37° C., washed and incubated in 10 μM, 50 μM, and 100 μM delphinidin. The fluxes of Ca^2+ were measured as ratio of excitation at 340 and 380 nm, and emission at 509 nm, for 300 seconds, at 37° C. in a spectrofluorimeter (LS55, PerkinElmer).

[6] = test system: Jurkat T cells; assay: Calcium release in Jurkat T cells in HBSS calcium free medium; assay type: cell-based
Procedure: To measure calcium release, 4×10^6 FURA 2-AM-loaded Jurkat T cells were incubated in HBSS calcium free medium as decribed in Example 6. The cells were incubated in 50 uM delphinidin, or in 50 uM delphinidin and 10 μM N-[4-[3,5-bis(trifluoromethyl)-1H-pyrazol-1-yl]phenyl]-4-methyl-1,2,3-thiadiazole-5-carboxamide (BTP-2, a Store-Operated Calcium Entry (SOCE) inhibitor). The release of Ca^2+ was measured as ratio of excitation at 340 and 380 nm, and emission at 509 nm, for 200 seconds, at 37° C., in a spectrofluorimeter (LS55, PerkinElmer).
4×10^6 FURA 2-AM-loaded Jurkat T cells were incubated in HBSS calcium free medium. The cells were then incubated in 50 uM delphinidin and the fluxes of Ca^2+ were measured as ratio of excitation at 340 and 380 nm, and emission at 509 nm, at 37° C. in a spectrofluorimeter (LS55, PerkinElmer).
4×10^6 FURA 2-AM-loaded Jurkat T cells were incubated in HBSS calcium free medium. The cells were then treated with vehicle alone or 50 or 100 uM U73122 for 10 minutes prior to incubation in 50 uM delphinidin. Ca^2+ flux was measured as ratio of excitation at 340 and 380 nm, and emission at 509 nm, at 37° C. in a spectrofluorimeter (LS55, PerkinElmer).

[7] = test system: Human T cells; assay: INF-γ production in freshly isolated human T cells (ELISA); assay type: cell-based
Procedure: as §2

[8] = test system: Jurkat T cells; assay: IL-2 production in Jurkat T cells (ELISA); assay type: cell-based; conditions: Table 9; 48 hrs; delphinidin 50 μM, CsA
[9] = test system: PPAR-γ; assay: PPAR-γ-Luc reporter assay in HL-60 cells; assay type: cell-based, Human; conditions: control substances, 12 h, concentration not given
Procedure: We examined the effect of delphindin-rich anthocyanidins on PPAR-γ activation. HL-60 cells in IMDM medium were transfected with the reporter vectors PPAR-γ-Luc (5 μg) (Panomics) and TK-RL (1 μg) (Promega) using Fugene 6 reagent (Roche), and cultured for 24 hr. Then, the cells were incubated for 12 h in 0.175, 1.75, or 17.5 μg/ml of delphindin-rich anthocyanidins, phorbol myristate acetate (PMA), 15-deoxi-d 12,14-prostaglandin J2 (PGj2), or tumor necrosis factor alpha (TNFα) as controls. Luciferase activity was measured using the Dual-Luciferase Reporter Assay kit (DLR) from Promega in a luminometer (Luminoskan).

[10] = Table 11, andrographolide 5 nM, delphinidin 50 μM
[11] = Table 10, andrographolide 5 nM, delphinidin 50 μM
[12] = andrographolide 5 nM, delphinidin 50 μM
[13] = Table 5, 48 hrs, delphinidin 50 μM, cyanidin 50 μM, PMA/Io 2 ng/ml 1 uM
[14] = calcium free medium, delphinidin 50 μM, BTP-2 10 μM
[15] = 48 hrs, 50 μM delphinidin alone

Compound: C=C1CC[C@@H]2[C@](C)(CO)[C@H](O)CC[C@@]2(C)[C@@H]1C/C=C1/C(=O)OC[C@H]1O [andrographolide]
- Average IL-2 production [1, 10]: 0.0140 Abs 450 nm
- Percentage compared to the control (IL-2) [1, 10]: 84.8%
- Average IL-2 production [2, 11]: 85 pg/mL
- Percentage compared to the control (IL-2) [2, 11]: 212.5%
- IL-2 levels higher (Table 10) [2, 12]: 112%

Compound: Oc1cc(O)c2cc(O)c(-c3ccc(O)c(O)c3)[o+]c2c1 [cyanidin, Cyanidin]
- IL-2 lower than control cells ([1]; 50 μM, 48 hrs): 10%
- Average IL-2 production [1, 13]: 45 pg/mL
- Percentage vs. control (IL-2) [1, 13]: 90%
- INF-γ levels relative to control cells, result in words ([3]; 50 μM): about the same levels
- Average INF-γ production [3]: 8 pg/mL
- Percentage vs. control (INF-γ) [3]: 100%

Compound: Oc1cc(O)c2cc(O)c(-c3cc(O)c(O)c(O)c3)[o+]c2c1 [delphinidin, Delphinidin]
- IL-2 levels higher than untreated control cells ([1]; 50 μM, 48 hrs): 240%
- Average IL-2 production [1, 13]: 170 pg/mL
- Percentage vs. control (IL-2) [1, 13]: 340%
- Average IL-2 production [1, 10]: 0.023 Abs 450 nm
- Percentage compared to the control (IL-2) [1, 10]: 139.4%
- IL-2 levels higher (Table 11) [1, 12]: 39.4%
- Average AUC of ratio 340/380 150 sec. after calcium treatments (calcium entry) [4]: 70
- Percentage compared to control (calcium entry) [4]: 184.2%
- INF-γ levels higher than untreated control cells ([3]; 50 μM): 250%
- Average INF-γ production [3]: 28 pg/mL
- Percentage vs. control (INF-γ) [3]: 350%
- Average area under the curve of ratio 340/380 during 300 seconds ([5]; 10 μM delphinidin): 100
- Percentage compared to control ([5]; 10 μM delphinidin): 166.7%
- area under the curve higher than untreated control cells ([5]; 10 μM delphinidin): 66.7%
- Average area under the curve of ratio 340/380 during 300 seconds ([5]; 50 μM delphinidin): 225
- Percentage compared to control ([5]; 50 μM delphinidin): 375%
- area under the curve higher than untreated control cells ([5]; 50 μM delphinidin): 275%
- Average area under the curve of ratio 340/380 during 300 seconds ([5]; 100 μM delphinidin): 250
- Percentage compared to control ([5]; 100 μM delphinidin): 416.7%
- area under the curve higher than untreated control cells ([5]; 100 μM delphinidin): 316.7%
- Ca2+ fluxes, result in words ([5]; 10, 50, 100 μM delphinidin): induced Ca^2+ fluxes in Jurkat T cells in a dose-dependent manner
- calcium release (FIG. 1), result in words ([6]; 50 uM delphinidin, calcium free medium): induced reversible calcium release
- Average AUC of ratio 340/380 during 200 seconds (calcium release) [6, 14]: 51
- Percentage compared to the control (calcium release) [6, 14]: 1700%
- AUC higher than untreated control cells (calcium release) ([6]; delphinidin 50 μM, BTP-2 10 uM): 1700%
- INF-γ levels higher than untreated control cells ([7]; 50 μM delphinidin): 950%
- Average INF-γ production [7, 15]: 3900 pg/mL
- Percentage vs. control (INF-γ) [7, 15]: 1054.1%
- Average IL-2 production ([2]; Table 7, 50 μM delphinidin alone): 370 pg/mL
- Average IL-2 production [2, 11]: 87 pg/mL
- Percentage compared to the control (IL-2) [2, 11]: 217.5%
- IL-2 levels higher (Table 10) [2, 12]: 117%
- Average IL-2 production [8]: 240 pg/mL

Compound: tumor necrosis factor alpha [TNFα]
- Average percentage activity of control [PPAR-γ-Luc/TK-RL] ± SD [9]: 283.4 ± 47.23%
